From patent US20030225152A1, “3-(Arylamino)methylene-1, 3-dihydro-2h-indol-2-ones as kinase inhibitors” (priority 2001, published 2003)

Assays:
[1] = target: T1, cytoplasmic domain of the human VEGF receptor (VEGFR-2) (Homo sapiens, UniProt P35968); experiment: KDR Assay; type: biochemical; conditions: His-VEGFR-2; 3.6 μM ATP
T1 construct: The cytoplasmic domain of the human VEGF receptor (VEGFR-2) was expressed as a Histidine-tagged fusion protein; Histidine tag
Procedure: The cytoplasmic domain of the human VEGF receptor (VEGFR-2) was expressed as a Histidine-tagged fusion protein following infection of insect cells using an engineered baculovirus. His-VEGFR-2 was purified to homogeneity, as determined by SDS-PAGE, using nickel resin chromatography. Kinase assays were performed in 96 well microtiter plates that were coated overnight with 30 μg of poly-Glu-Tyr (4:1) in 10 mM Phosphate Buffered Saline (PBS), pH 7.2-7.4. The plates were incubated with 1% BSA and then washed four times with PBS prior to starting the reaction. Reactions were carried out in 120 μL reaction volumes containing 3.6 μM ATP in kinase buffer (50 mM Hepes buffer pH 7.4, 20 mM MgCl2, 0.1 mM MnCl2 and 0.2 mM Na3VO4). Test compounds were reconstituted in 100% DMSO and added to the reaction to give a final DMSO concentration of 5%. Reactions were initiated by the addition 0.5 ng of purified protein. Following a ten minute incubation at 25° C., the reactions were washed four times with PBS containing 0.05% Tween-20. 100 μl of a monoclonal anti-phosphotyrosine antibody-peroxidase conjugate was diluted 1:10000 in PBS-Tween-20 and added to the wells for 30 minutes. Following four washes with PBS-Tween-20, 100 μl of O-phenylenediamine Dihydrochloride in Phosphate-citrate buffer, containing urea hydrogen peroxide, was added to the wells for 7 minutes as a colorimetric substrate for the peroxidase. The reaction was terminated by the addition of 100 μl of 2.5N H2SO4 to each well and read using a microplate ELISA reader set at 492 nm. IC50 values for compound inhibition were calculated directly from graphs of optical density (arbitrary units) versus compound concentration following subtraction of blank values.

[2] = system: VEGF induced increases in intracellular calcium levels in HUVEC (human umbilical vein endothelial cells); experiment: VEGF Stimulated Ca++ Signal in vitro (FLIPR); type: cell-based; conditions: VEGF 5 ng/mL; for IC50: 0.01 to 10.0 μM
How it was run: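 HUVEC loaded with Fluo-4 (45 min, 37° C.), washed, then pre-incubated 30 min with compound (10 μM single dose or 0.01–10.0 μM; 0.1% DMSO) before 5 ng/mL VEGF. Fluorescence at 516 nm read by FLIPR; IC50 from % inhibition of max-min VEGF response.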

T1 sequence (P35968 786-1356): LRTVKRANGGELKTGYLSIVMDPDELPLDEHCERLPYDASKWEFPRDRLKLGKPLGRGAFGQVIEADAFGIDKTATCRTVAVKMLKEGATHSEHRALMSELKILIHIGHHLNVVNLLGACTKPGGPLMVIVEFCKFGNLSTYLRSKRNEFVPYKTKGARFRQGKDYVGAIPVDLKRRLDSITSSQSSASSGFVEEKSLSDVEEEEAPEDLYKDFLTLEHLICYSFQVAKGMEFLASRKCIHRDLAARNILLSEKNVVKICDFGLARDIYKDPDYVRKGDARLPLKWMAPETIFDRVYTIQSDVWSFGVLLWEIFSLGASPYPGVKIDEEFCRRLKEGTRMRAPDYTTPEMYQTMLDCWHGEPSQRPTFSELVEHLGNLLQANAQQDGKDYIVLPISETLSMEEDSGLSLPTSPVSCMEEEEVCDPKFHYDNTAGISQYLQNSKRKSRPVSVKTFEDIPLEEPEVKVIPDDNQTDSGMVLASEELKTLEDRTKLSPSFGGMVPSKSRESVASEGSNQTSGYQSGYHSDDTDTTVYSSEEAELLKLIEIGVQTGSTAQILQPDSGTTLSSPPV

IC50 [1] [nM]	SMILES	inhibition at 10 µM ([2]; Homo sapiens) [%]	IC50 ([2]; Homo sapiens) [nM]	IC50 [2] [nM]
150	Cc1cccc2c1C(=CNc1ccc3ncsc3c1)C(=O)N2 [Example 92, 3-(Benzothiazol-6-ylaminomethylene)-4-methyl-1,3-dihydro-indol-2-one]	69	1770	–
630	COC(=O)c1ccc(NC=C2C(=O)Nc3cccc(C)c32)cc1OC [Example 93, 2-Methoxy-4-[(4-methyl-2-oxo-1,2-dihydro-indol-3-ylidenemethyl)-amino]-benzoic acid methyl ester]	51.5	6620	–
640	COc1cccc(NC=C2C(=O)Nc3ccccc32)c1 [Example 94, 3-[(3-Methoxy-phenylamino)-methylene]-1,3-dihydro-indol-2-one]	92.5	3880	–
200	Cc1cccc2c1C(=CNc1ccc(O)cc1)C(=O)N2 [Example 96, 3-[(4-Hydroxy-phenylamino)-methylene]-4-methyl-1,3-dihydro-indol-2-one]	97	1680	–
200	Cc1cccc2c1C(=CNc1ccc3cc[nH]c3c1)C(=O)N2 [Example 97, 3-[(1H-Indol-6-ylamino)-methylene]-4-methyl-1,3-dihydro-indol-2-one]	96.5	1860	–
210	Cc1cccc2c1C(=CNc1ccc(CO)cc1)C(=O)N2 [Example 99, 3-[(4-Hydroxymethyl-phenylamino)-methylene]-4-methyl-1,3-dihydro-indol-2-one]	97.8	–	–
650	COc1ccc(NC=C2C(=O)Nc3ccc(Cl)cc32)cc1OC [Example 102, 5-Chloro-3-[(3,4-dimethoxyphenylamino)-methylene]-1,3-dihydro-indol-2-one]	82.5	5910	–
480	O=C1Nc2ccc(Cl)cc2C1=CNc1ccc2cn[nH]c2c1 [Example 103]	96.6	1040	–
230	O=C1Nc2ccc(Cl)cc2C1=CNc1ccc(N2CCOCC2)cc1 [Example 106, 5-Chloro-3-[(4-morpholinophenylamino)-methylene]-1,3-dihydro-indol-2-one]	96.6	≤ 1000	600
600	CCN(CC)Cc1cc(NC=C2C(=O)Nc3ccc(Cl)cc32)ccc1O [Example 109, 5-Chloro-3-[(4-hydoxy-3-(diethylaminomethyl)phenylamino)-methylene]-1,3-dihydro-indol-2-one]	96.5	1700	–
570	O=C1Nc2ccc(Cl)cc2C1=CNc1ccc2[nH]ccc2c1 [Example 110, 5-(5-Chloro-2-oxo-1,2-dihydro-indol-3-ylidenemethylamino)indole]	95	1550	–
430	O=C1Nc2ccc(Cl)cc2C1=CNc1ccc(CO)cc1 [Example 111, 5-Chloro-3-[(4-(hydoxymethyl)phenylamino)-methylene]-1,3-dihydro-indol-2-one]	98.5	1170	–
200	Cc1cccc2c1C(=CNc1ccc(CCO)cc1)C(=O)N2 [Example 113, 3-{[4-(2-Hydroxy-ethyl)-phenylamino]-methylene}-4-methyl-1,3-dihydro-indol-2-one]	97.5	–	–
920	CC(=O)Nc1ccc(NC=C2C(=O)Nc3ccc(Cl)cc32)cc1 [Example 114, N-{4-[(5-Chloro-2-oxo-1,2-dihydro-indol-3-ylidenemethyl)-amino]-phenyl}-acetamide]	89	1930	–
470	O=C(O)Cc1ccc(NC=C2C(=O)Nc3ccc(Cl)cc32)cc1 [Example 115, {4-[(5-Chloro-2-oxo-1,2-dihydro-indol-3-ylidenemethyl)-amino]-phenyl}-acetic acid]	98.2	3080	–
980	NS(=O)(=O)c1ccc(NC=C2C(=O)Nc3ccc(Cl)cc32)cc1 [Example 116, 4-[(5-Chloro-2-oxo-1,2-dihydro-indol-3-ylidenemethyl)-amino]-benzenesulfonamide]	99.4	1640	–

IC50 [1] [nM]	SMILES	inhibition at 10 µM ([2]; Homo sapiens) [%]	IC50 ([2]; Homo sapiens) [nM]	IC50 [2] [nM]
310	COc1ccc(NC=C2C(=O)Nc3cccc(C)c32)cc1O [Example 117, 3-[(3-Hydroxy-4-methoxy-phenylamino)-methylene]-4-methyl-1,3-dihydro-indol-2-one]	97.7	–	–
530	Cc1cccc2c1C(=CNc1ccc(OC(F)F)cc1)C(=O)N2 [Example 119, 3-{[4-(1,1-Difluoro-methoxy)-phenylamino]-methylene}-4-methyl-1,3-dihydro-indol-2-one]	89.3	1340	–
370	CCOc1ccc(NC=C2C(=O)Nc3cccc(C)c32)cc1 [Example 122, 3-[(4-Ethoxy-phenylamino)-methylene]-4-methyl-1,3-dihydro-indol-2-one]	71.7	1540	–
590	Cc1cccc2c1C(=CNc1ccc(C(C)C)cc1)C(=O)N2 [Example 123, 3-[(4-Isopropyl-phenylamino)-methylene]-4-methyl-1,3-dihydro-indol-2-one]	49.9	4430	–
520	Cc1cccc2c1C(=CNc1ccc3c(c1)OCO3)C(=O)N2 [Example 124, 3-(Benzo[1,3]dioxol-5-ylaminomethylene)-4-methyl-1,3-dihydro-indol-2-one]	71.9	1960	–
670	Cc1ccc(NC=C2C(=O)Nc3cccc(C)c32)cc1O [Example 125, 3-[(3-Hydroxy-4-methyl-phenylamino)-methylene]-4-methyl-1,3-dihydro-indol-2-one]	96.5	1860	–
340	COc1ccc(NC=C2C(=O)Nc3cccc(C)c32)cc1OC [Example 126, 3-[(3,4-Dimethoxy-phenylamino)-methylene]-4-methyl-1,3-dihydro-indol-2-one]	95.2	1220	–
460	Cc1cccc2c1C(=CNc1ccc(C#N)cc1)C(=O)N2 [Example 128, 4-[(4-Methyl-2-oxo-1,2-dihydro-indol-3-ylidenemethyl)-amino]-benzonitrile]	42.9	8260	–
380	CC(=O)Nc1ccc(NC=C2C(=O)Nc3cccc(C)c32)cc1 [Example 130, N-{4-[(4-Methyl-2-oxo-1,2-dihydro-indol-3-ylidenemethyl)-amino]-phenyl}-acetamide]	97.3	≤ 1000	570
770	Cc1cccc2c1C(=CNc1ccc(CC(=O)O)cc1)C(=O)N2 [Example 131, {4-[(4-Methyl-2-oxo-1,2-dihydro-indol-3-ylidenemethyl)-amino]-phenyl}-acetic acid]	96.7	1550	–
1120	CCOC(=O)Nc1ccc(NC=C2C(=O)Nc3ccccc32)cc1O [Example 134, {2-Hydroxy-4-[(2-oxo-1,2-dihydro-indol-3-ylidenemethyl)-amino]-phenyl}-carbamic acid ethyl ester]	83.1	7390	–
7770	COc1ccc(NC=C2C(=O)Nc3cccc(C)c32)c(F)c1 [Example 135, 3-[(2-Fluoro-4-methoxy-phenylamino)-methylene]-4-methyl-1,3-dihydro-indol-2-one]	28	–	–
490	CSc1ccc(NC=C2C(=O)Nc3ccccc32)cc1 [Example 136, 3-[(4-Methylsulfanyl-phenylamino)-methylene]-1,3-dihydro-indol-2-one]	63.7	2070	–
270	CSc1ccc(NC=C2C(=O)Nc3cccc(C)c32)cc1 [Example 137, 4-Methyl-3-[(4-methylsulfanyl-phenylamino)-methylene]-1,3-dihydro-indol-2-one]	65.4	1670	–
730	CSc1ccc(NC=C2C(=O)Nc3ccc(Cl)cc32)cc1 [Example 138, 5-Chloro-3-[(4-methylsulfanyl-phenylamino)-methylene]-1,3-dihydro-indol-2-one]	80.9	7070	–
